Experimental findings from patent US20260356851A1, “TRICYCLIC COMPOUNDS AND USES THEREOF” (HUTCHMED LIMITED, priority 2023, published 2026) are described below.

pIC50: −log10 of the molar value. Read-outs that look alike come from different tables or passages of the source.

What all share (assay type): cell-based
Test [1] deals with T1, pERK1/2 (Thr202/Tyr204), NCI-1H441 (KRAS G12V) (Homo sapiens, UniProt P01116, G12V).
T1 construct: pERK1/2 HTRF read-out
In words: Assay of intracellular pERK1/2 (Thr202/Tyr204) phosphorylation in NCI-H441 cells (KRAS G12V). The essentials:
(§1)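 HTRF detection of Thr202/Tyr204-phosphorylated ERK1/2 (665/615 nm ratio) in lysates from cells treated 2 days with serially 3-fold diluted compound.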

Test [2] deals with T2, pERK1/2 (Thr202/Tyr204), NCI-1H358 (KRAS G12C) (Homo sapiens, UniProt P01116, G12C).
T2 construct: pERK1/2 HTRF read-out
Description: Assay of intracellular pERK1/2 (Thr202/Tyr204) phosphorylation in NCI-H358 cells (KRAS G12C). A digest of the protocol:
as §1

Test [3] concerns the target T3, pERK1/2 (Thr202/Tyr204), PANC-1 (KRAS G121D) (Homo sapiens, UniProt P01116, G12D).
T3 construct: pERK1/2 HTRF read-out
In words: Assay of intracellular pERK1/2 (Thr202/Tyr204) phosphorylation in PANC-1 cells (KRAS G12D). A digest of the protocol:
as §1

The mark [4] stands for this setting: pERK1/2, 2 days, read-out: NCI-H441 (KRAS G12V) IC50.
Setting [5] is: pERK1/2, 2 days, read-out: NCI-H358 (KRAS G12C) IC50.
The mark [6] stands for this setting: pERK1/2, 2 days, read-out: PANC-1 (KRAS G12D) IC50.

T2 sequence (P01116 1-188 isoform P01116-2 G12C): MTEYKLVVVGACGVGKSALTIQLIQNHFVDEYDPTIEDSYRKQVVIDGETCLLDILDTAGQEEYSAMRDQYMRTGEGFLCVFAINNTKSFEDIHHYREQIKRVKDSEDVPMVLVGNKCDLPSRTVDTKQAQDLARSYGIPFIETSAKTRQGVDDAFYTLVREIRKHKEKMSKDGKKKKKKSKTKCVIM
T1 sequence (P01116 1-188 isoform P01116-2 G12V): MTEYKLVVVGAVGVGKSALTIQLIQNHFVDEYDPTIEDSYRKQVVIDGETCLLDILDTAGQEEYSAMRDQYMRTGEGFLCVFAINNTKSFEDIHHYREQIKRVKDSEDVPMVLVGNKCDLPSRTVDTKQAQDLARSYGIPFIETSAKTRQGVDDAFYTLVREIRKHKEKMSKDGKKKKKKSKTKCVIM
T3 sequence (P01116 1-188 isoform P01116-2 G12D): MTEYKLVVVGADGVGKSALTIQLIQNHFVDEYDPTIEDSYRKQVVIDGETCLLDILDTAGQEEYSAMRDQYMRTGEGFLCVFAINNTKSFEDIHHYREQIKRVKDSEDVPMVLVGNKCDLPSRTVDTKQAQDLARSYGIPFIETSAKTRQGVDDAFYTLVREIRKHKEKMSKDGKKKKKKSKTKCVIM

Take `Cc1c(F)c(N)cc(-c2nc3c4c(nc(OC[C@@]56CCCN5C[C@H](F)C6)nc4c2F)N(C(C)c2cc(F)cnc2N)CCO3)c1C(F)(F)F` (stereo partly drawn) [Compound 177]: the pIC50 in test [1] (setting [4]) was 8.70; in test [2] (setting [5]) it was 9.15; in test [3] (setting [6]), 7.96.
The matching figures for `Cc1c(F)c(N)cc(-c2nc3c4c(nc(OC[C@@]56CCCN5C[C@H](F)C6)nc4c2F)N(Cc2cccnc2N)CCO3)c1C(F)(F)F` [Compound 180]: 8.22, 9.00 and 7.46.
As for `Cc1cc(N)cc(-c2nc3c4c(nc(OC[C@@]56CCCN5C[C@H](F)C6)nc4c2F)N(C(C)c2cccnc2N)C2(CC2)CO3)c1C(F)(F)F` (stereo partly drawn) [Compound 181], the pIC50 in test [1] (setting [4]), in test [2] (setting [5]) and in test [3] (setting [6]) was less than 7.00 in each case.
For the compound `Cc1c(F)c(N)cc(-c2nc3c4c(nc(OC[C@@H]5C[C@@H](F)CN5C)nc4c2F)N(C(C)c2cccnc2N)CCO3)c1C(F)(F)F` (stereo partly drawn) [Compound 185], the figures for the pIC50 in test [1] (setting [4]), in test [2] (setting [5]) and in test [3] (setting [6]) were 9.00, 9.52 and 7.89, respectively.
The like results for `Cc1c(F)c(N)cc(-c2nc3c4c(nc(OC[C@@]56CCCN5C[C@H](F)C6)nc4c2F)N(C2(c4cccnc4N)CC2)CCO3)c1C(F)(F)F` [Compound 187] were, in that order, 7.36, 7.20 and less than 7.00.
The matching figures for `Cc1c(F)c(N)cc(-c2nc3c4c(nc(OC[C@@]56CCC(=O)N5C[C@H](F)C6)nc4c2F)N(C(C)c2cccnc2N)CCO3)c1C(F)(F)F` (stereo partly drawn) [Compound 195]: 7.00, 7.48 and less than 7.00.
The matching figures for `Cc1c(F)c(N)cc(-c2nc3c4c(nc(OC[C@@]56CCCN5C[C@H](F)C6)nc4c2F)N(C2CC2)CCO3)c1C(F)(F)F` [Compound 196]: less than 7.00, less than 7.00 and less than 7.00.
Turning to `C#Cc1c(F)ccc2cc(O)cc(-c3nc4c5c(nc(OC[C@@]67CCCN6C[C@H](F)C7)nc5c3F)N(C3CC3)CCO4)c12` [Compound 197], the pIC50 in test [1] (setting [4]), in test [2] (setting [5]) and in test [3] (setting [6]) was less than 7.00 each time.
Take `Cc1c(F)c(N)cc(-c2nc3c4c(nc(OC[C@@]56CCCN5C[C@H](F)C6)nc4c2F)N(C2CCNC2)CCO3)c1C(F)(F)F` (stereo partly drawn) [Compound 198]: the pIC50 in test [1] (setting [4]), in test [2] (setting [5]) and in test [3] (setting [6]) was less than 7.00 throughout.
Turning to `Cc1c(F)c(N)cc(-c2nc3c4c(nc(OC[C@@]56CCCN5C[C@H](F)C6)nc4c2F)N(C(C)c2cccnc2N)CCO3)c1Cl` (stereo partly drawn) [Compound 204], the pIC50 in test [1] (setting [4]) was 8.40; in test [2] (setting [5]), 9.00; in test [3] (setting [6]), 7.31.
The like results for `CC(c1cccnc1N)N1CCOc2nc(-c3cc(N)c(F)c(Cl)c3C(F)(F)F)c(F)c3nc(OC[C@@H]4C[C@@H](F)CN4C)nc1c23` (stereo partly drawn) [Compound 205] were, in that order, 9.00, 9.52 and 7.96.
Take `Cc1c(F)c(N)cc(-c2nc3c4c(nc(OCC56CCCN5CC5(CC5)C6)nc4c2F)N(C(C)c2cccnc2N)CCO3)c1C(F)(F)F` (stereo not drawn) [Compound 218]: the pIC50 in test [1] (setting [4]) was 9.00; in test [2] (setting [5]), 9.30; in test [3] (setting [6]) it was 8.40.
The like results for `[2H]C1([2H])CC[C@@]2(COc3nc4c5c(nc(-c6cc(N)c(F)c(Cl)c6C(F)(F)F)c(F)c5n3)OCCN4C(C)c3cccnc3N)C[C@@H](F)CN12` (stereo partly drawn) [Compound 221] were, in that order, 9.40, 10.00 and 8.70.
The matching figures for `[2H]C1([2H])CC[C@@]2(COc3nc4c5c(nc(-c6cc(N)c(F)c(Cl)c6C(F)(F)F)c(F)c5n3)OC([2H])([2H])C([2H])([2H])N4C(C)c3ccc[n+]([O-])c3N)C[C@@H](F)CN12` (stereo partly drawn) [Compound 224]: less than 7.00, less than 7.00 and less than 7.00.
The matching figures for `Cc1cc(N)cc(-c2nc3c4c(nc(OC[C@@]56CCCN5C/C(=C\F)C6)nc4c2F)N(C(C)c2cccnc2N)CCO3)c1C(F)(F)F` (stereo partly drawn) [Compound 225]: 9.30, 9.70 and 9.30.
As for `Cc1c(F)c(N)cc(-c2nc3c4c(nc(OC[C@@]56CCCN5C[C@H](F)C6)nc4c2F)N(C(C)c2ccc[n+]([O-])c2N)CCO3)c1C(F)(F)F` (stereo partly drawn) [Compound 226], the pIC50 in test [1] (setting [4]) is less than 7.00; in test [2] (setting [5]) it was 7.37; in test [3] (setting [6]) it was less than 7.00.
As for `CC(c1cccnc1N)N1CCOc2nc(-c3cc(N)c(F)c(Cl)c3C(F)(F)F)c(F)c3nc(OC[C@@]45CCCN4C/C(=C\F)C5)nc1c23` (stereo partly drawn) [Compound 229], the pIC50 is 9.30 in test [1] (setting [4]), 10.00 in test [2] (setting [5]) and 9.30 in test [3] (setting [6]).
With `Cc1c(F)c(N)cc(-c2nc3c4c(nc(OC[C@@]56CCCN5C/C(=C\F)C6)nc4c2F)N(C(C)c2cccnc2N)CCO3)c1C(F)(F)F` (stereo partly drawn) [Compound 230], the pIC50 in test [1] (setting [4]) was 9.30; in test [2] (setting [5]) it was 10.00; in test [3] (setting [6]), 9.00.
The like results for `[2H]C1([2H])CC[C@@]2(COc3nc4c5c(nc(-c6cc(N)cc(C)c6C(F)(F)F)c(F)c5n3)OCCN4C(C)c3cccnc3N)C[C@@H](F)CN12` (stereo partly drawn) [Compound 231] were, in that order, 9.70, 9.70 and 9.10.
The like results for `CC(c1cccnc1N)N1CCOc2nc(-c3cc(N)c(F)c(Cl)c3C3CC3)c(F)c3nc(OC[C@@]45CCCN4C[C@H](F)C5)nc1c23` (stereo partly drawn) [Compound 232] were, in that order, 9.05, 9.70 and 8.30.
As for `CC(c1cccnc1N)N1CCOc2nc(-c3cc(N)c(F)c(Cl)c3Cl)c(F)c3nc(OC[C@@]45CCCN4C[C@H](F)C5)nc1c23` (stereo partly drawn) [Compound 233], the figures for the pIC50 in test [1] (setting [4]), in test [2] (setting [5]) and in test [3] (setting [6]) were 8.52, 9.00 and 7.49, respectively.
The matching figures for `Cc1cc(N)cc(-c2nc3c4c(nc(OC[C@@]56CCCN5CC5(CC5(F)F)C6)nc4c2F)N(C(C)c2cccnc2N)CCO3)c1C(F)(F)F` (stereo partly drawn) [Compound 237]: 9.40, 9.52 and 9.00.
Take `Cc1c(F)c(N)cc(-c2nc3c4c(nc(OC[C@@]56CCCN5CC(=C(F)F)C6)nc4c2F)N(C(C)c2cccnc2N)CCO3)c1C(F)(F)F` (stereo partly drawn) [Compound 243]: the pIC50 in test [1] (setting [4]) is 9.30; in test [2] (setting [5]) it was 9.70; in test [3] (setting [6]) it was 9.00.
The like results for `C#Cc1c(F)ccc2cc(O)cc(-c3nc4c5c(nc(OC[C@@]67CCCN6C[C@H](F)C7)nc5c3F)N(C(C)c3cccnc3N)CCO4)c12` (stereo partly drawn) [Compound 259] were, in that order, 9.00, 9.05 and 9.00.
The like results for `Cc1cc(N)cc(-c2nc3c4c(nc(OC[C@@]56CCCN5C[C@H](F)C6)nc4c2F)N(C(C)c2cccnc2N)[C@@H](C)CO3)c1C(F)(F)F` (stereo partly drawn) [Compound 262] were, in that order, 7.33, 7.55 and 7.40.
As for `CC(=O)Nc1ncccc1C(C)N1CCOc2nc(-c3cc(N)c(F)c(C)c3C(F)(F)F)c(F)c3nc(OC[C@@]45CCCN4C[C@H](F)C5)nc1c23` (stereo partly drawn) [Compound 266], the pIC50 in test [1] (setting [4]) is less than 7.00; in test [2] (setting [5]), 7.02; in test [3] (setting [6]) it was less than 7.00.
Turning to `CC(c1cccnc1N)N1c2nc(OC[C@@]34CCCN3C[C@H](F)C4)nc3c(F)c(-c4cc(O)cc(Cl)c4C4CC4)nc(c23)OC[C@@H]1C` (stereo partly drawn) [Compound 268], the pIC50 in test [1] (setting [4]) is 9.30; in test [2] (setting [5]) it was 9.70; in test [3] (setting [6]) it was 9.40.
The like results for `CC(c1cccnc1N)N1c2nc(OC[C@@H]3C[C@@H](F)CN3C)nc3c(F)c(-c4cc(O)cc5ccc(F)c(F)c45)nc(c23)OC[C@@H]1C` (stereo partly drawn) [Compound 281] were, in that order, 9.30, 9.70 and 9.00.
The like results for `CC(c1cccnc1N)N1c2nc(OC[C@@H]3C[C@@H](F)CN3C)nc3c(F)c(-c4cc(N)c(F)c(Cl)c4C(F)(F)F)nc(c23)OC[C@@H]1C` (stereo partly drawn) [Compound 289] were, in that order, 9.00, 9.52 and 8.40.
The matching figures for `CCc1c(F)ccc2cc(O)cc(-c3nc4c5c(nc(OC[C@@H]6C[C@@H](F)CN6C)nc5c3F)N(C(C)c3cccnc3N)[C@@H](C)CO4)c12` (stereo partly drawn) [Compound 290]: 9.52, 9.70 and 9.70.
In the case of `CC(c1cccnc1N)N1c2nc(OC[C@@H]3C[C@@H](F)CN3C)nc3c(F)c(-c4cc(O)cc(Cl)c4C4CC4)nc(c23)OC[C@@H]1C` (stereo partly drawn) [Compound 291], the results for the pIC50 in test [1] (setting [4]), in test [2] (setting [5]) and in test [3] (setting [6]) were 9.52, 10.00 and 9.00, respectively.
As to `CCNC(=O)Oc1cc(Cl)c(C2CC2)c(-c2nc3c4c(nc(OC[C@@]56CCCN5C[C@H](F)C6)nc4c2F)N(C(C)c2cccnc2N)[C@@H](C)CO3)c1` (stereo partly drawn) [Compound 293, (*)3-((9S)-10-(1-(2-aminopyridin-3-yl)ethyl)-4-fluoro-2-(((2R,7aS)-2-fluorotetrahydro-1H-pyrrolizin-7a(5H)-yl)methoxy)-9-methyl-9,10-dihydro-8H-7-oxa-1,3,6,10-tetraazacyclohepta[de]naphthalen-5-yl)-5-chloro-4-cyclopropylphenyl ethylcarbamate acetate], the pIC50 in test [1] (read-out: NCI-H441 (KRAS G12V) IC50, pERK1/2, 2 days) is 9.00; in test [2] (read-out: NCI-H358 (KRAS G12C) IC50, pERK1/2, 2 days), 9.00; in test [3] (read-out: PANC-1 (KRAS G12D) IC50, pERK1/2, 2 days) it was 9.30.
